The test has as its system ARAF (human), P10398 [Y301D/Y302D]. The experiment in a line: radiometric filter-binding kinase assay, Kinase HotSpot. The following applies: compound 0.5 µM; ATP 10 µM.

Chain of ARAF (human), P10398 [Y301D/Y302D] (P10398 whole entry Y301D/Y302D, looked up): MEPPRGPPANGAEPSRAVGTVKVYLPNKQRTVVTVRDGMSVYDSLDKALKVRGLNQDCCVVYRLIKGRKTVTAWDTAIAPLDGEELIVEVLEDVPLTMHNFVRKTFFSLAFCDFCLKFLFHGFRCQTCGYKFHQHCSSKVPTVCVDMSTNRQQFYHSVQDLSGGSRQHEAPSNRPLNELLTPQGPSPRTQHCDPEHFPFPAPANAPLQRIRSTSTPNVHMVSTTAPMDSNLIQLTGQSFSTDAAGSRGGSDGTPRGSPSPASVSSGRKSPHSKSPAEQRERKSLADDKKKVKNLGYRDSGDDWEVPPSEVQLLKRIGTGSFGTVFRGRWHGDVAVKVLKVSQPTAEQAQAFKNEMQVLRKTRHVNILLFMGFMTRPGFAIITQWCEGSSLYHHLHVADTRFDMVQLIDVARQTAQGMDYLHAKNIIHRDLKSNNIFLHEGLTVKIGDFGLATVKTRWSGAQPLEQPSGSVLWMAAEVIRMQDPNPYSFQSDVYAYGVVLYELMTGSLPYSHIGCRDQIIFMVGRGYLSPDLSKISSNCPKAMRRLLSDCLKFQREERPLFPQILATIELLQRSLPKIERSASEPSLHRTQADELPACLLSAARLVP

As usually defined, the residual activity is the signal under treatment as a percentage of the control signal. In the case of `Cn1cnc2cc3c(Nc4cccc(Br)c4)ncnc3cc21`, the residual activity was 119%.
In the case of `CS(=O)(=O)CCNCc1ccc(-c2ccc3ncnc(Nc4ccc(OCc5cccc(F)c5)c(Cl)c4)c3c2)o1` it was 85%; in that of `Nc1cccc(-c2cc3c(Oc4cccc(O)c4)ncnc3[nH]2)c1`, 57.3%.
In the case of `O=C1Nc2ccccc2/C1=C1\Nc2ccccc2\C1=N/O` it was 100%; in that of `CC[n+]1c(/C=C/N(C)c2ccccc2)n(-c2ccccc2)c2ccc(-c3nc4ccccc4s3)cc21`, 102%; in that of `COc1cc2c(cc1OC)-c1[nH]nc(Nc3cccc(F)c3)c1C2`, 98.9%.
`Cn1c2ccccc2c2c3c(c4c5ccccc5n(CCC#N)c4c21)CNC3=O`: the residual activity was 103%.
`CCC(=O)Nc1ccc2ncnc(Nc3cccc(Br)c3)c2c1`: the residual activity was 93.4%.
For `O=C1NC(=O)C(c2c[nH]c3ccccc23)=C1c1c[nH]c2ccccc12`, the residual activity came to 155%.
`CNC(=O)c1cc(Oc2ccc(NC(=O)Nc3ccc(Cl)c(C(F)(F)F)c3)cc2)ccn1`: the residual activity is 7.04%.
For the compound `O=C(CCCc1ccc(-c2ccccc2F)cc1)Nc1ccc(O)cc1`, the residual activity amounted to 104%.
Next, `N#C/C(=C1/Nc2ccccc2S1)c1ccnc(NCCc2cccnc2)n1`: 97.6%; `CC(C)[C@H](CO)Nc1nc(Nc2cc(N)cc(Cl)c2)c2ncn(C(C)C)c2n1`: 82.4%; `C[C@@H]1CCN(C(=O)CC#N)C[C@@H]1N(C)c1ncnc2[nH]ccc12`: 102%.
For the compound `O=c1cc(N2CCOCC2)oc2c(-c3ccccc3)cccc12`, the residual activity turned out to be 105%.
Regarding `CCOC(=O)c1c(C)[nH]c(/C=C2\C(=O)Nc3ccccc32)c1C`, the residual activity was 94.7%.
Next, `N#Cc1c(NC(=O)c2cccc3ccccc23)sc2c1CCCC2`: 104%; `CCc1nc(-c2ccc(OC)cc2)[nH]c1-c1ccncc1`: 99.6%.
Take `COc1cc(Nc2c(C#N)cnc3cc(OCCCN4CCN(C)CC4)c(OC)cc23)c(Cl)cc1Cl`: the residual activity came to 109%.
In the case of `COc1cccc(-c2cc(=O)c3ccccc3o2)c1N` it was 98.9%; in that of `CN(C)C[C@H]1CCn2c(c(C3=C(c4cn(C)c5ccccc45)C(=O)NC3=O)c3ccccc32)C1`, 109%.
As for `O=C(Nc1cccc(Nc2cc(Nc3cccc(C(F)(F)F)c3)ncn2)c1)C1CC1`, the residual activity was determined as 95.1%.
In the case of `N#C/C(=C(/N)Sc1ccc(N)cc1)c1ccccc1C(F)(F)F` it was 98.8%; in that of `N#CCCc1ccc2c(c1)-c1[nH]c3ccc([N+](=O)[O-])cc3c1CC(=O)N2`, 94.5%; in that of `COc1cc2ncnc(Nc3ccc(Oc4ccccc4)cc3)c2cc1OC`, 73.3%.
Next, `c1ccc(-c2n[nH]c3c2oc2ccccc23)cc1`: 93.8%; `O=C(O)c1ccc2c3c1cccc3c(=O)n1c3ccccc3nc21`: 101%.
In the case of `CCN(CC)CCNC(=O)c1c(C)[nH]c(/C=C2\C(=O)Nc3ccc(Cl)cc32)c1C` it was 132%; in that of `COc1ccc(OC)c2c(=S)c3ccccc3[nH]c12`, 122%; in that of `COc1ccc(Cl)cc1NC(=O)Nc1cc(C)nc2ccccc12`, 92.4%.
`O=c1[nH]c2ccccc2n1C1CCN(Cc2ccc(-c3nc4cc5[nH]cnc5cc4nc3-c3ccccc3)cc2)CC1`: the residual activity worked out at 99.2%.
In the case of `FC(F)(F)c1ccc(/C=C/c2nc(COc3ccc(CCCCn4ccnn4)cc3)co2)cc1` it was 102%; in that of `CCOc1cc2ncnc(Nc3cccc(Br)c3)c2cc1OCC`, 105%; in that of `CC(C)N(CCC(=O)c1ccc2ccccc2c1)Cc1ccccc1`, 104%.
Consider `N#C/C(=C\c1ccc(O)c(O)c1)C(=O)NCc1ccccc1`, for which the residual activity turned out to be 95.2%.
In the case of `Oc1cccc(-c2nc(N3CCOCC3)c3oc4ncccc4c3n2)c1` it was 92%; in that of `O=C1NC(=O)c2cc(Nc3ccc(F)cc3)c(Nc3ccc(F)cc3)cc21`, 90.7%; in that of `Cn1sc(=O)n(Cc2ccccc2)c1=O`, 94.6%.
Consider `c1ccc(-c2n[nH]cc2-c2ccnc3ccccc23)nc1`, for which the residual activity came out at 91.5%.
Next, `c1ccc2c(-c3ccncc3)c[nH]c2c1`: 97.7%.
Next, `Nc1ncnc2c1c(-c1ccc(Oc3ccccc3)cc1)cn2C1CCCC1`: 53%; `COc1ccc(CNC(=O)Nc2ncc([N+](=O)[O-])s2)cc1`: 91%; `COc1cc2ncnc(Nc3cccc(Cl)c3)c2cc1OC`: 108%.
As for `Cc1ccc(Nc2nccc(N(C)c3ccc4c(C)n(C)nc4c3)n2)cc1S(N)(=O)=O`, the residual activity stood at 76.5%.
Next, `CC#CC(=O)Nc1cc2c(Nc3ccc(F)c(Cl)c3)ncnc2cn1`: 74.1%.
In the case of `O=C1Cc2c([nH]c3ccc(Br)cc23)-c2ccccc2N1`, the residual activity was found to be 104%.
On to `Nc1nccc(-c2c(-c3ccc(F)cc3)ncn2C2CCNCC2)n1`, for which the residual activity came out at 93.1%.
For the compound `CN(C)CCCn1cc(C2=C(c3c[nH]c4ccccc34)C(=O)NC2=O)c2ccccc21`, the residual activity worked out at 100%.
Turning to `Cc1cc(Nc2nc(-c3ccccc3)nc3ccccc23)n[nH]1`, the residual activity turned out to be 89.7%.
On to `O=C(Nc1cccc(Nc2nccc(Nc3cccc(C(F)(F)F)c3)n2)c1)C1CC1`, for which the residual activity turned out to be 90.2%.
Next, `Cc1cccc(-c2nc(C(C)(C)C)[nH]c2-c2ccc3c(c2)OCO3)n1`: 99.1%.
Consider `Nc1nnc2[nH]c3ccccc3nc1-2`, for which the residual activity turned out to be 119%.
Next, `CN(C)c1ccc(/C=C2\C(=O)Nc3ccccc32)cc1`: 94.3%; `O=C(c1cc2cc(O)ccc2[nH]1)c1cc2cc(O)ccc2[nH]1`: 98.6%.
In the case of `O=C1NC(=O)c2c1c1c3ccccc3[nH]c1n1cncc21` it was 93.8%.
Next, `COc1ccc(COc2ccc(Cc3cnc(N)nc3N)cc2OC)cc1`: 96.6%; `COc1cc2c(N3CCN(C(=O)Nc4ccc(OC(C)C)cc4)CC3)ncnc2cc1OCCCN1CCCCC1`: 103%; `COc1ccc2c(c1)/C(=C/c1cnc[nH]1)C(O)=N2`: 111%.
As to `Nc1ncnc2c1cnn2-c1ccccc1`, the residual activity is 99.3%.
Regarding `CCN(CC)CCCCN1c2ccccc2Oc2ccc(Cl)cc21`, the residual activity was determined as 103%.
In the case of `CCN(CC)CCNC(=O)c1c(C)[nH]c(/C=C2\C(=O)Nc3ccc(F)cc32)c1C` it was 124%; in that of `CO[C@@H]1[C@H](N(C)C(=O)c2ccccc2)C[C@H]2O[C@]1(C)n1c3ccccc3c3c4c(c5c6ccccc6n2c5c31)C(=O)NC4`, 122%; in that of `CN(C)S(=O)(=O)c1ccc2c(c1)/C(=C/c1cc3c([nH]1)CCCC3)C(=O)N2`, 105%.
In the case of `O=C1NC(=O)/C(=C/c2ccc3c(c2)OC(F)(F)O3)S1` it was 104%; in that of `Nc1ncnc2[nH]nc(Nc3ccc(F)cc3)c12`, 80.7%; in that of `N#Cc1c[nH]c2c[nH]/c(=N\Cc3cccnc3)cc2/c1=N\c1ccc(F)c(Cl)c1`, 106%.
In the case of `COc1cc2ncnc(N3CCN(C(=O)Nc4ccc(Oc5ccccc5)cc4)CC3)c2cc1OC` it was 105%.

Values taken from the kinase profiling compilation of Christmann-Franck et al. (2016).
